Patent US9107404B2, “Method for reducing undesirable effects on turfgrass” (Ishihara Sangyo Kaisha, Ltd., priority 2010, dated 2015)

Key:
[1] = system: bentgrass (breed: penncross); test: Example 7: bentgrass rubbed against mascarenegrass treated with rimsulfuron plus surfactant; conditions: in vivo
Protocol: (§1) Soil was put into a 1/300,000 ha pot, and mascarenegrass was cultivated. Further, soil was put into a 1/1,000,000 ha pot, and bentgrass (breed: penncross) was cultivated. A predetermined amount (rimsulfuron: 35.25 g a.i./ha) of water dispersible granules containing rimsulfuron as an active ingredient (tradename: Hurley DF, manufactured by MARUWA Biochemical Co., Ltd.) was diluted with water containing a predetermined amount of Maku-pika (tradename, the same as in Example 1) and applied by foliar treatment to the mascarenegrass by a small spraygun, so that the amount of the treating liquid corresponds to 2,000 L/ha. Upon expiration of 6 hours after the treatment, the bentgrass not treated with rimsulfuron was rubbed against the mascarenegrass treated therewith (the pot of bentgrass was permitted to slide and reciprocate once).
On 13th day after the treatment with rimsulfuron, the state of growth of the bentgrass was evaluated in the same manner as in Example 3, and the growth inhibition rate and the degree of discoloring are shown in Table 10. Further, as comparative areas, an area wherein Kusa-rino (tradename, the same as in Example 1) or Surfactant WK (tradename, manufactured by MARUWA Biochemical Co., Ltd.) was used, and an area wherein no surfactant was used, were provided.

[2] = system: bentgrass (breed: penncross); test: Example 1: bentgrass pot rubbed against mascarenegrass treated with flazasulfuron plus surfactant; conditions: in vivo
Protocol: Soil was put into a 1/300,000 ha pot, and mascarenegrass was cultivated. Further, soil was put into a 1/1,000,000 ha pot, and bentgrass (breed: penncross) was cultivated. A predetermined amount (flazasulfuron: 50 g a.i./ha) of water dispersible granules (tradename: SHIBAGEN DF, manufactured by Ishihara Sangyo Kaisha, Ltd.) containing flazasulfuron as an active ingredient, was diluted with water containing a predetermined amount of a silicone surfactant (tradename: Maku-pika, manufactured by Ishihara Sangyo Kaisha, Ltd.) and applied by foliar treatment to the mascarenegrass by a small spraygun so that the amount of the treating liquid corresponds to 2,000 L/ha. Immediately after the treatment or upon expiration of 6 hours after the treatment, the bentgrass not treated with flazasulfuron was rubbed against the mascarenegrass treated with flazasulfuron (the pot of bentgrass was permitted to slide and reciprocate once).
On 14th day after the treatment with flazasulfuron, the state of growth of the bentgrass was visually observed and investigated, and the growth inhibition rate and the degree of necrosis evaluated in accordance with the following standards are shown in Tables 1 and 2. […]

[3] = system: bentgrass (breed: penncross); test: Example 2: tester walked on flazasulfuron-treated Japanese lawngrass, then stepped on bentgrass; conditions: in vivo, 21 day
Protocol: Japanese lawngrass was cultivated on ground in 0.6 m^2 (0.4 m×1.5 m). Further, soil was put into a 1/300,000 ha pot, and bentgrass (breed: penncross) was cultivated. A predetermined amount (flazasulfuron: 50 g a.i./ha) of SHIBAGEN DF (tradename, the same as in Example 1) was diluted with water containing a predetermined amount of Maku-pika (tradename, the same as in Example 1) and applied by foliar treatment to the Japanese lawngrass by a small spraygun so that the amount of the treating liquid corresponds to 2,000 L/ha. Immediately after the treatment or upon expiration of 3 hours after the treatment, a tester walked (5 steps) on the Japanese lawngrass treated with flazasulfuron and then stepped on the bentgrass.
On 21st day after treatment with flazasulfuron, the state of growth of the bentgrass was evaluated in the same manner as in Example 1, and the growth inhibition rate is shown in Tables 3 and 4. Further, as comparative areas, an area wherein Kusa-rino (tradename, the same as in Example 1) was used, and an area wherein no surfactant was used, were provided.

[4] = system: bentgrass (breed: Minakuru); test: Example 4: field test, tester walked on flazasulfuron-treated mascarenegrass, then stepped on bentgrass; conditions: in vivo
Protocol: On ground, mascarenegrass in 50 m^2 (2 m×25 m) and bentgrass (breed: Minakuru) in 0.12 m^2 (0.35 m×0.35 m) were respectively cultivated. A predetermined amount (flazasulfuron: 100 g a.i./ha) of a wettable powder containing flazasulfuron as an active ingredient (tradename: SHIBAGEN WP, manufactured by Ishihara Sangyo Kaisha, Ltd.) was diluted with water containing a predetermined amount of a silicone surfactant (tradename: Silwet L-77, manufactured by Witco) and applied by foliar treatment to the mascarenegrass by a knapsack power sprayer so that the amount of the treating liquid corresponds to 2,000 L/ha. After the treating liquid dried, a tester walked (100 m) on the mascarenegrass treated with flazasulfuron, then walked (10 m) on mascarenegrass not treated with flazasulfuron and then stepped on five times on the bentgrass.
On 11th day after the treatment with flazasulfuron, the state of growth of the bentgrass was evaluated in the same manner as in Example 3, and the growth inhibition rate and the degree of discoloring are shown in Table 7. Further, as comparative areas, an area wherein Kusa-rino (tradename, the same as in Example 1) was used, and an area wherein no surfactant was used, were provided.

[5] = system: bentgrass (breed: penncross); test: Example 10: bentgrass rubbed against mascarenegrass treated with flazasulfuron plus surfactant (Breakthru); conditions: in vivo
Protocol: as §1, with “(flazasulfuron: 50” for “(rimsulfuron: 35.25”, “SHIBAGEN DF (tradename, the same” for “water dispersible granules containing rimsulfuron”, “in Example 1)” for “an active ingredient (tradename: Hurley DF, manufactured by MARUWA Biochemical Co., Ltd.)”, “a silicone surfactant (tradename: Breakthru, manufactured by Sankei Chemical Co., Ltd.)” for “Maku-pika (tradename, the same as in Example 1)”, “flazasulfuron,” for “rimsulfuron”
On 21st day after the treatment with flazasulfuron, the state of growth of the bentgrass was evaluated in the same manner as in Example 3, and the growth inhibition rate and the degree of discoloring are shown in Table 13. Further, as comparative areas, an area wherein Kusa-rino (tradename, the same as in Example 1) was used, and an area wherein no surfactant was used, were provided.

[6] = system: bentgrass (breed: penncross); test: Example 6: bentgrass rubbed against mascarenegrass treated with asulam plus surfactant; conditions: in vivo
Protocol: Soil was put into a 1/300,000 ha pot, and mascarenegrass were cultivated. Further, soil was put into a 1/1,000,000 ha pot, and bentgrass (breed: penncross) was cultivated. A predetermined amount (asulam: 4625 g a.i./ha) of a treating liquid containing asulam as an active component (tradename: Arsilan liquid preparation, manufactured by Ishihara Sangyo Kaisha, Ltd.) was diluted with water containing a predetermined amount of Maku-pika (tradename, the same as in Example 1), and applied by foliar treatment to the mascarenegrass by a small spraygun so that the amount of the treating liquid corresponds to 2,000 L/ha. Upon expiration of 6 hours after the treatment, the bentgrass not treated with asulam was rubbed against the mascarenegrass treated therewith (the pot of bentgrass was permitted to slide and reciprocate once).
On 12th day after the treatment with asulam, the state of growth of the bentgrass was evaluated in the same manner as in Example 3, and the growth inhibition rate and the degree of discoloring are shown in Table 9. Further, as comparative areas, an area wherein Kusa-rino (tradename, the same as in Example 1) was used, and an area wherein no surfactant was used, were provided.

[7] = system: bentgrass (breed: penncross); test: Example 5: bentgrass rubbed against mascarenegrass treated with trifloxysulfuron sodium salt plus surfactant; assay type: in vivo; conditions: trifloxysulfuron sodium salt 45 g a.i./ha, spreading agent not added, rubbed 6 hours after treatment, 12th day
Protocol: as §1, with “amount (trifloxysulfuron sodium salt: 45” for “amount (rimsulfuron: 35.25”, “containing trifloxysulfuron sodium salt” for “containing rimsulfuron”, “(tradename: Monument water dispersible granules,” for “(tradename: Hurley DF,”, “by Syngenta Japan K.K.)” for “by MARUWA Biochemical Co., Ltd.)”, “with trifloxysulfuron sodium salt,” for “with rimsulfuron”
On 12th day after the treatment with trifloxysulfuron sodium salt, the state of growth of the bentgrass was evaluated in the same manner as in Example 3, and the growth inhibition rate and the degree of discoloring are shown in Table 8. Further, as comparative areas, an area wherein Kusa-rino (tradename, the same as in Example 1) was used, and an area wherein no surfactant was used, were provided.

CCS(=O)(=O)c1cccnc1S(=O)(=O)NC(=O)Nc1nc(OC)cc(OC)n1 [rimsulfuron]
Bentgrass Discoloring [1]: 1.0
Bentgrass Growth inhibition rate ([1]; penncross, bentgrass, 13 day): 35%

COc1cc(OC)nc(NC(=O)NS(=O)(=O)c2ncccc2C(F)(F)F)n1 [flazasulfuron]
Bentgrass Necrosis [2]: 0.8
Bentgrass Growth inhibition rate (%) ([2]; penncross, bentgrass, 14 day): 48%
Bentgrass Growth inhibition rate (%) [3]: 30%
Bentgrass Growth inhibition rate (%) ([4]; Minakuru, bentgrass, 11 day): 28%
Bentgrass Discoloring [4]: 1.0
Bentgrass Discoloring [5]: 0.5
Bentgrass Growth inhibition rate ([5]; penncross, bentgrass, 21 day): 57%

COC(=O)NS(=O)(=O)c1ccc(N)cc1 [asulam]
Bentgrass Discoloring [6]: 2.5
Bentgrass Growth inhibition rate ([6]; penncross, bentgrass, 12 day): 45%

COc1cc(OC)nc(NC(=O)[N-]S(=O)(=O)c2ncccc2OCC(F)(F)F)n1.[Na+] [trifloxysulfuron sodium salt]
Bentgrass Growth inhibition rate [7]: 60%
Bentgrass Discoloring ([7]; degree 0-5.0): 1.5
